The subject of assay [1] is Bronchial epithelial cells. The experiment in a line: BioMAP BE3C system (IL-1β + TNF-α + IFN-γ), scoring of readout parameters. It is filed as cell-based, human. As to conditions: for PAI-1 score: desired change decrease; for EGFR score: desired no change or increase. An excerpt: (§1) Each screened compound is scored according to its modulation of the selected readout parameters. Compounds receive a positive score (score of 1) or negative score (score of 0) for each readout parameter set forth in Table 2 that is modulated in the desired direction. […] Parameters may be penalized by making the positive score a −1 for parameters where regulation is opposite to the desired direction.
(§2) Cell culture. Human umbilical vein endothelial cells (HUVEC) were pooled from multiple donors, cultured according to standard methods, and plated into microtiter plates at passage 4. Cell culture medium for all systems containing HUVEC included hydrocortisone. Coronary artery smooth muscle cells (CASM3C) and umbilical artery smooth muscle cells (HSM3C) were cultured according to standard procedures. Peripheral blood mononuclear cells (PBMC) were prepared from buffy coats from normal human donors according to standard methods. Monocyte-derived macrophages were differentiated in the presence of M-CSF for 7 d according to standard procedures. Human dermal fibroblasts were pooled from 3 donors, cultured according to standard methods, and plated confluent 24 h before stimulation. Cell culture medium for all systems containing fibroblasts and keratinocytes contained low hydrocortisone. Epidermal keratinocytes and bronchial epithelial cells from 3 donors were cultured according to standard procedures and pooled when plated into microtiter plates. For keratinocyte-fibroblast co-cultures, cells were plated simultaneously 24 h before stimulation. For bronchial epithelial cell-fibroblast co-cultures, fibroblasts were plated and cultured 48 before addition of epithelial cells, then cultured another 24 hr before stimulation. Concentrations/amounts of agents added to confluent microtiter plates to build each system: cytokines (IL-1β, 1 ng/ml; TNF-α, 5 ng/ml; IFN-γ, 20 ng/ml; IL-4, 5 ng/ml), activators (SAg, 20 ng/ml; histamine, 10 μM; zymosan, 10 μg/ml; or LPS, 2 ng/ml), growth factors (TGF-β, 5 ng/ml; EGF, bFGF, and PDGF-BB, 10 ng/ml), and PBMC (7.5×10^4 cells/well) or macrophages (3.5×10^4 cells/well).
(§3) Compounds. Compounds were prepared in the solvent directed, added 1 hr before stimulation of the cells, and were present during the 24 hr stimulation period for the measurement of parameters listed in Table 2. For proliferation, compounds added 1 hr before stimulation of the cells with cytokines, and were present during the 48 to 72 hr assay. If prepared in DMSO, the final concentration of solvent was 0.1% or less.
(§4) Readout Parameter Measurements. The levels of readout parameters were measured by ELISA. Briefly, microtiter plates are treated, blocked, and then incubated with primary antibodies or isotype control antibodies (0.01-0.5 microg/ml) for 1 hr. After washing, plates were incubated with a peroxidase-conjugated anti-mouse IgG secondary antibody or a biotin-conjugated anti-mouse IgG antibody for 1 hr followed by streptavidin-HRP for 30 min. Plates were washed and developed with TMB substrate and the absorbance (OD) was read at 450 nm (subtracting the background absorbance at 650 nm). Quantitation of TNF-alpha or PGE2 in the LPS system was done using a commercially available kit according to the manufacturer's directions. Proliferation of endothelial cells (HUVEC and CAEC), smooth muscle cells (SMC and CASMC), and PBMC (T cells) was quantitated by Alamar Blue reduction or SRB.
(§5) Data analysis. Mean OD values for each parameter were calculated for compounds run in duplicate. The mean value (or single well OD value) for each parameter in a treated sample was then divided by the mean value from an appropriate control to generate a ratio. All ratios were then log10 transformed. 95% significance prediction envelopes (grey shading in Figures) were calculated for historical controls.

In assay [2] the test system is Peripheral Blood Mononuclear Cells + Umbilical Vein Endothelial Cells. The experiment in a line: BioMAP LPS system (TLR4), scoring of readout parameters. It is filed as cell-based, human. As to conditions: LPS (by position); desired change decrease.
From the text: as §1, §2, §3, §4, §5

In assay [3] the test system is Fibroblasts. The experiment in a line: BioMAP HDF3CT system (IL-1β + TNF-α + IFN-γ + TGF-β), scoring of readout parameters. It is filed as cell-based, human.
From the text: as §1, §2, §3, §4, §5

The test system of assay [4] is Fibroblasts. The experiment in a line: BioMAP HDF3CGF system (IL-1β + TNF-α + IFN-γ + EGF + bFGF + PDGFbb), scoring of readout parameters. It is filed as cell-based, human. As to conditions: for PAI-1 score: desired change decrease; for MMP-1 score: desired change increase; for EGFR score: desired no change or increase.
Protocol: In the “HDF-3CGF” system, dermal fibroblast cells, usually primary human dermal fibroblast cells are cultured alone or in the presence of lung epithelial cells, usually primary human lung epithelial cells, with two or more factors selected from: TNF, IL-1, IFNγ, EGF, bFGF+HSPG (heparan sulfate proteoglycan), and PDGFbb. In some embodiments three or more factors are present, four or more, five or more, or all six factors are present.
Human neonatal dermal fibroblasts (HDFn) or adult lung fibroblasts (HDFp) or fibroblasts from tissues such as liver, heart, or kidney are used. Cells are cultured at 3×10^4 cells/ml in DMEM/F12 (50/50) from Cellgro, supplemented with LSGS kit (from Cascade Biologics); fetal bovine serum, 2% v/v, hydrocortisone 100 nM, human epidermal growth factor 10 ng/ml, basic fibroblast growth factor 3 ng/ml and heparin 10 μg/ml, and penicillin/streptomycin amphotericin B solution (PSA), until confluency. Medium is replaced with DMEM/F12 with only penicillin/streptomycin amphotericin B solution (PSA), then 24 hours later, the following are applied:
After another 24, 48 or 72 hours incubation (37° C., 5% CO2) the cultures are evaluated for the following parameters: ICAM, VCAM, CD40, CD90, IP-10, MCP-1, Collagen I, Mig, m-CSF, TIMP-2, PAI-I, IL-8, Collagen III, HLA-DR, MMP-1, MMP-9, proliferation, TGF-b1, eotaxin-3, decorin, alpha-SMC, MLCK, I-TAC, EGFR, TIMP-1.
Cell culture. […] Human dermal fibroblasts were pooled from 3 donors, cultured according to standard methods, and plated confluent 24 h before stimulation. Cell culture medium for all systems containing fibroblasts and keratinocytes contained low hydrocortisone. […] Concentrations/amounts of agents added to confluent microtiter plates to build each system: cytokines (IL-1β, 1 ng/ml; TNF-α, 5 ng/ml; IFN-γ, 20 ng/ml; IL-4, 5 ng/ml), activators (SAg, 20 ng/ml; histamine, 10 μM; zymosan, 10 μg/ml; or LPS, 2 ng/ml), growth factors (TGF-β, 5 ng/ml; EGF, bFGF, and PDGF-BB, 10 ng/ml), and PBMC (7.5×10^4 cells/well) or macrophages (3.5×10^4 cells/well).
The test system of assay [5] is Fibroblasts. The assay can be described thus: BioMAP HDFT system (TGF-β), scoring of readout parameters. It is filed as cell-based, human. Details: key to PAI-1 score: 1 = modulated in desired direction, 0 = not (no penalties applied). As to conditions: for PAI-1 score: HDFT, desired change decrease; for inhibit PAI-1 in the HDFT system: indication of TGF-b signaling inhibition without being cytotoxic.
From the text: as §1
(§6) Compounds were first selected to inhibit PAI-1 in the HDFT as an indication of TBF-b signaling inhibition without being cytotoxic. […] Blank spots in Table 3 were where parameter was not assayed. Penalties were not applied for this scoring.
as §2, §3, §4
Data analysis. Mean OD values for each parameter were calculated for compounds run in duplicate. The mean value (or single well OD value) for each parameter in a treated sample was then divided by the mean value from an appropriate control to generate a ratio.

A further assay concerns human primary cells. The assay can be described thus: Total score for desired parameter modulation over the BioMAP systems of Table 1. It is filed as cell-based. As to conditions: penalties not applied.
From the text: as §1
The relative importance of each parameter may be weighted by the screener to select those parameters of greatest interest for a particular application.
as §6
BioMAP Systems are designed to model complex human disease biology in a practical in vitro format. This is achieved by stimulating human primary cells (single cell type or defined mixtures of cell types) such that multiple disease-relevant signaling pathways are simultaneously active. The choice of cell types and stimulations is guided by the knowledge of disease biology and mechanisms. Incorporating appropriate cell types and stimulating signaling pathways relevant to disease states allows association of biological activities detected in BioMAP Systems with disease processes. Drug effects are then recorded by measuring biologically meaningful protein readouts that provide coverage of biological space of interest (e.g., inflammation, tissue remodeling) and allow discrimination between different drug classes tested.
as §2, §3
Readout Parameter Measurements. The levels of readout parameters were measured by ELISA.

Assay [6] has as its system Umbilical Vein Endothelial Cells. The assay can be described thus: BioMAP 3C system (IL-1β + TNF-α + IFN-γ), scoring of readout parameters. It is filed as cell-based, human. As to conditions: for HLA-DR score: desired change decrease; for uPAR score: desired change increase.
From the text: as §1, §2, §3, §4, §5

The test system of assay [7] is Bronchial epithelial cells. The experiment in a line: BioMAP BE4T system (IL-4 + TNF-a), scoring of readout parameters. It is filed as cell-based, human. Also on record: key: 1 = modulated in desired direction, 0 = not (−1 = opposite). As to conditions: for PAI-1 score: desired change decrease; for EGFR score: desired no change or increase. As to the method: In the “BE4T” system, bronchial epithelial cells, usually primary human bronchial epithelial cells, are cultured in the presence of TNF-α and IL-4.
as §1, §2, §3, §4, §5

For `Cn1cnc([N+](=O)[O-])c1Sc1ncnc2nc[nH]c12` [Azathioprine], in assay [1], the HLA-DR score worked out at 0, the MMP-1 score is reported as 0, the uPA score worked out at 0 and the PAI-1 score amounted to 0. In addition, the EGFR score in assay [1] stood at 0. For the same molecule, the TF score in assay [2] was 0. For the same molecule, in the assay on Fibroblasts [3], the MMP-1 score turned out to be 0. Moreover, in the assay on Fibroblasts [4], the PAI-1 score is listed as 0, the MMP-1 score was found to be 0 and the EGFR score came to 0. Further, in the assay on Fibroblasts [5], the PAI-1 score amounted to 0 and the “inhibit PAI-1 in the HDFT system” value was “none of these inhibit PAI-1”. Further, the “Score (Fraction correctly modulated parameters out of 45-58 total)” value in the assay with human primary cells came to 0.12. Also, in assay [6], the HLA-DR score is 0 and the uPAR score worked out at 0. Moreover, in assay [7], the uPA score was determined as 0, the PAI-1 score was 0 and the EGFR score is reported as 0.

Turning to `COc1cc(-c2ccc(=O)[nH]n2)ccc1OC(F)F` [Zardaverine], in assay [1], the HLA-DR score came to 0, the MMP-1 score is reported as 0, the uPA score is on record as 0 and the PAI-1 score was determined as 0. In addition, the EGFR score in assay [1] is given as 0. Further, the TF score in assay [2] stood at 1. The MMP-1 score in the assay with Fibroblasts [3] stood at 0. Further, in the assay on Fibroblasts [4], the PAI-1 score came to 1, the MMP-1 score was 0 and the EGFR score came to 0. Moreover, the PAI-1 score in the assay on Fibroblasts [5] came to 1. Further, the “Score (Fraction correctly modulated parameters out of 45-58 total)” value in the assay with human primary cells is listed as 0.25. Moreover, in assay [6], the HLA-DR score was found to be 0 and the uPAR score is 0. In assay [7], the uPA score came to 0, the PAI-1 score was found to be 0 and the EGFR score is 0.

As to (R)-(−)-Apomorphine, the HLA-DR score in assay [1] turned out to be 1; in assay [6], 0. Moreover, the MMP-1 score (in assay [1]; with Fibroblasts [3]; in the assay with Fibroblasts [4]) was 0 throughout. Further, the uPA score in assay [1] and in assay [7] was 0 throughout. Further, the PAI-1 score is 1 in assay [1], 1 in the assay on Fibroblasts [4], 1 in the assay with Fibroblasts [5] and 0 in assay [7]. Also, the EGFR score (in assay [1]; in the assay on Fibroblasts [4]; in assay [7]) was 0 each time. For the same molecule, the TF score in assay [2] is 0. Besides, the “Score (Fraction correctly modulated parameters out of 45-58 total)” value with human primary cells stood at 0.31. Besides, in assay [6], the uPAR score worked out at 0.

As for `COC(=O)Nc1nc2ccc(SC(C)C)cc2[nH]1` [Methiazole], in assay [1], the HLA-DR score is 0, the MMP-1 score is reported as 0, the uPA score is on record as 0 and the PAI-1 score stood at 1. Further, the EGFR score in assay [1] stood at 0. For the same molecule, in assay [2], the TF score was found to be 1. Moreover, in the assay with Fibroblasts [3], the MMP-1 score is recorded as 0. Also, in the assay on Fibroblasts [4], the PAI-1 score is recorded as 1, the MMP-1 score came out at 0 and the EGFR score was found to be 0. Moreover, the PAI-1 score in the assay with Fibroblasts [5] worked out at 1. The “Score (Fraction correctly modulated parameters out of 45-58 total)” value in the assay on human primary cells is listed as 0.55. Also, in assay [6], the HLA-DR score is listed as 0 and the uPAR score was 0. In assay [7], the uPA score is 0, the PAI-1 score worked out at 1 and the EGFR score is listed as 0.

As for `COc1cc2c(c(OC)c1OC)-c1ccc(OC)c(=O)cc1[C@@H](NC(C)=O)CC2` [Colchicine], in assay [1], the HLA-DR score turned out to be 0, the MMP-1 score was found to be 0, the uPA score is 0 and the PAI-1 score stood at 0. Further, the EGFR score in assay [1] is listed as 0. In assay [2], the TF score was 0. Also, the MMP-1 score with Fibroblasts [3] is listed as 0. Besides, in the assay with Fibroblasts [4], the PAI-1 score was found to be 0, the MMP-1 score was 0 and the EGFR score is 0. Besides, in the assay with Fibroblasts [5], the PAI-1 score is 0 and the “inhibit PAI-1 in the HDFT system” value is “none of these inhibit PAI-1”. In the assay with human primary cells, the “Score (Fraction correctly modulated parameters out of 45-58 total)” value amounted to 0.17. In assay [6], the HLA-DR score is reported as 0 and the uPAR score came out at 0. In addition, in assay [7], the uPA score is reported as 1, the PAI-1 score is 0 and the EGFR score is 0.

As for `Fc1ccc(C(OCCN2CCN(CCCc3ccccc3)CC2)c2ccc(F)cc2)cc1` [GBR 12909], the HLA-DR score in assay [1] and in assay [6] was 0 in each case. Moreover, the MMP-1 score in assay [1] is 1; in the assay on Fibroblasts [3] it was 0; in the assay on Fibroblasts [4] it was 0. In addition, the uPA score in assay [1] and in assay [7] was 0 throughout. The PAI-1 score in assay [1] is 0; with Fibroblasts [4], 1; with Fibroblasts [5] it was 1; in assay [7] it was 0. Also, the EGFR score (in assay [1]; in the assay with Fibroblasts [4]; in assay [7]) was 0 each time. For the same molecule, the TF score in assay [2] amounted to 0. Further, the “Score (Fraction correctly modulated parameters out of 45-58 total)” value with human primary cells came out at 0.29. Further, the uPAR score in assay [6] is given as 0.

In the case of `C=C1CC[C@H](O)C/C1=C/C=C1\CCC[C@]2(C)[C@@H]([C@H](C)/C=C/[C@H](C)C(C)C)CC[C@@H]12` [Calciferol], in assay [1], the HLA-DR score was 0, the MMP-1 score is 1, the uPA score worked out at 0 and the PAI-1 score is recorded as 0. The EGFR score in assay [1] is given as 0. For the same molecule, the TF score in assay [2] amounted to 0. Further, the MMP-1 score in the assay on Fibroblasts [3] is on record as 0. In the assay on Fibroblasts [4], the PAI-1 score amounted to 1, the MMP-1 score worked out at 0 and the EGFR score came out at 0. The molecule also had a PAI-1 score in the assay with Fibroblasts [5] of 1. For the same molecule, the “Score (Fraction correctly modulated parameters out of 45-58 total)” value in the assay on human primary cells amounted to 0.29. Moreover, in assay [6], the HLA-DR score was determined as 0 and the uPAR score amounted to 1. Also, in assay [7], the uPA score amounted to 1, the PAI-1 score is given as 0 and the EGFR score is given as 0.

Source of the values: patent US20100093613A1, “METHODS FOR IDENTIFYING AGENTS AND THEIR USE FOR THE PREVENTION OR STABILIZATION OF FIBROSIS” (priority 2007, published 2010).
